Target: T1, SWI/SNF-related matrix-associated actin-dependent regulator of chromatin subfamily A member 2 (Homo sapiens, UniProt P51531)
Test: Induction of thermal stabilization of SMARCA2 (unknown origin) assessed as change in melting temperature by fluorescence based thermal shift assay

T1 sequence (P51531 whole entry): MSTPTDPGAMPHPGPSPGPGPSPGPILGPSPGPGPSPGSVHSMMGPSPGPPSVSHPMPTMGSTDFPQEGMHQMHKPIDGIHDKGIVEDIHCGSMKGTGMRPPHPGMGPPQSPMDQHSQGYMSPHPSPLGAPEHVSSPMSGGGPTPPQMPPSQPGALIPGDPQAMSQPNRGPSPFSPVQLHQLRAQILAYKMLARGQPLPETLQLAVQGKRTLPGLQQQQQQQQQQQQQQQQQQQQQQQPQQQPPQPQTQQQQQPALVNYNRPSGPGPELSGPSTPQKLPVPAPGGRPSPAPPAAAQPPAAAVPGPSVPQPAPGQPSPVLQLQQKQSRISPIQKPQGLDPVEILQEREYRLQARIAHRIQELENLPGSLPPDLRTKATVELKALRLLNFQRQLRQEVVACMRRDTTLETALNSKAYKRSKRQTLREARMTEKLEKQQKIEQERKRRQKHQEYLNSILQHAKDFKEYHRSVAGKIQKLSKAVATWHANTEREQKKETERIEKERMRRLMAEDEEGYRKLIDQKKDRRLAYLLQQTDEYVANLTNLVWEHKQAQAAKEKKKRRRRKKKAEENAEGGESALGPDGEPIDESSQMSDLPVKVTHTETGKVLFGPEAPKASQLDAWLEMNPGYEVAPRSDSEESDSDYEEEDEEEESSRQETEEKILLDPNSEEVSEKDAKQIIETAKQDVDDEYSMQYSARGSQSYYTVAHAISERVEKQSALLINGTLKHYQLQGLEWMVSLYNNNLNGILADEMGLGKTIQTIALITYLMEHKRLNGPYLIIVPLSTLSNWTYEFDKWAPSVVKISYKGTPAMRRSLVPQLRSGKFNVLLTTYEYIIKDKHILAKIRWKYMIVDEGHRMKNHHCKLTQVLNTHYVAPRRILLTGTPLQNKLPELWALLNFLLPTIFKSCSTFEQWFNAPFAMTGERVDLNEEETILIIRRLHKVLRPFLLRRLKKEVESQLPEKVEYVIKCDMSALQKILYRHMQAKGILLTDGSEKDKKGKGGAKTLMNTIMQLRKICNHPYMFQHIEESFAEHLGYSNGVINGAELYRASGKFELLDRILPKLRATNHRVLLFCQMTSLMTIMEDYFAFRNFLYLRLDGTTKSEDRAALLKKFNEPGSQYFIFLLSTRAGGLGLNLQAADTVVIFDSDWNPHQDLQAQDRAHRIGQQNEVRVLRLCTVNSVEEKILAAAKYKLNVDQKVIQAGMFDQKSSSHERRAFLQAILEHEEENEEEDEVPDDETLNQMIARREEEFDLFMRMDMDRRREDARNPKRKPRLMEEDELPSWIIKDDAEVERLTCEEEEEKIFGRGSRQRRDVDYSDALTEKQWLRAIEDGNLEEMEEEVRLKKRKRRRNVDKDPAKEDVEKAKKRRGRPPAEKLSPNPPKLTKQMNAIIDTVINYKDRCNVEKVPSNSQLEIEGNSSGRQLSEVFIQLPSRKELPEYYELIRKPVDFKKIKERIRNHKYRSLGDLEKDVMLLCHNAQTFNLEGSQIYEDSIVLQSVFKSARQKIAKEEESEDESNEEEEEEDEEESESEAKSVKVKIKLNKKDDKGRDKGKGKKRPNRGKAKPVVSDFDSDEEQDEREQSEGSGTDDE

Row | Structure (SMILES) | ΔTm [°C]
1 | O=C(O)c1ccccc1O | 1.3

Target: T1, SWI/SNF-related matrix-associated actin-dependent regulator of chromatin subfamily A member 2
Test: Inhibition of SMARCA2 (unknown origin)

Row | Structure (SMILES) | IC50 [µM]
2 | COc1cc(CNCc2ccccn2)ccc1OCc1cccc(Cl)c1 | 9.2
3 | COc1cc(CNCc2ccccn2)cc(Cl)c1OCc1ccc(Cl)cc1Cl | 9.1
4 | COc1cc(CNCc2ccccn2)ccc1OCc1cccs1 | 17
5 | COc1cc(CNCc2ccccn2)cc(Cl)c1OCc1ccc(Cl)cc1 | 30.2
6 | COc1cc(CNCc2ccccn2)ccc1OCc1ccccc1F | 9

Source: ChEMBL document CHEMBL6134801, “SMARCA2 protein: Structure, function and perspectives of drug design” (Eur J Med Chem, 2025)
